Laboratory results published in patent US11542497B2, “Method for evaluating multiple different genes of interest” (THE UNIVERSITY OF TOKYO, priority 2017, dated 2023).

Assays:
[1] = test system: DLD1 BRCA2 (−/−) line with introduced BRCA2 mutations; test: MANO-B method, Clinvar BRCA2 mutations, olaparib 1 μM (Example 8, FIG. 9); type: cell-based
Experimental: (§1) First, 3 different unique bar code sequences were added (to conduct experiments at n=3) to each of 11 different plasmids including: plasmids having wild-type BRCA2, K2729N mutation (benign), D2723H mutation (pathogenic), and 7 truncate variants in which a stop codon is introduced about every 500 amino acids (K485*, L997*, Q1502*, K1984*, C2535*, W2970*, C3304*); and piggyBac empty vector (System Biosciences, LLC). Accordingly, the total of 33 different plasmids were prepared. DLD1 BRCA2 (−/−) line was transfected with each plasmid and a transposase expression plasmid pCMV-hyPBase (Sanger Institute) in accordance with the manufacturer's protocol. In this way, cells having BRCA genes stably introduced in their genome were prepared.
(§2) Different cell lines having mutated genes tagged with bar code sequences introduced were mixed in equal numbers. At this time point, genomic DNA was once extracted (Day 0). Here, a PARP inhibitor (olaparib) was given at varied concentrations and then cultured. Genomic DNA was extracted from the cells collected at Day 12 and was used as a template to PCR-amplify each bar code sequence. After that, deep-sequencing was performed with a next-generation sequencer. The effects of each mutation on the drug sensitivity and the cell proliferation potential were assessed from a change in the ratio of bar code read counts between the case of no chemical treatment and the case of chemical treatment.
Mutations registered at the Clinvar (https://www.ncbi.nlm.nih.gov/clinvar/) (18 kinds of benign mutation, 52 mutations of VUS or with conflicting interpretations, and 8 kinds of malignant mutation) were evaluated by the MANO-B method using the same procedure as of Example 7 (except that olaparib was used at 1 μM). As a result, most of the benign mutations or malignant mutations registered at the Clinvar were determined to be likewise benign or malignant, respectively, by the MANO-B method (data not shown).

[2] = test system: DLD1 BRCA2 (−/−) line with introduced BRCA2 variants; test: MANO-B method, olaparib at varied concentrations (Example 7); type: cell-based; settings: for relative read count (no chemical = 1): Day 12, average of n=3
Experimental: as §1, §2
The results were normalized while the read count when no chemical was given was set to 1.
When functional BRCA2 is introduced into cells, homologous recombination-mediated repair function is restored, and thus the sensitivity to the drug, a PARP inhibitor, decreases and the cells become resistant to the inhibitor. By contrast, cells having a function-deficient BRCA2 introduced are sensitive to the PARP inhibitor, so that the relative cell count decreases when the PARP inhibitor is added. Based on such criteria, the function of each mutated BRCA2 was examined. […] Thus, the mutation was determined to be a function-preserving, benign mutation, which is consistent with past reports.

## O=C(c1cc(Cc2n[nH]c(=O)c3ccccc23)ccc1F)N1CCN(C(=O)C2CC2)CC1 [olaparib]
[1]; 5 mutants: D2913H, P2639L, S3291C, D23V, and I2664M
  MANO-B group of VUS / conflicting-interpretation BRCA2 mutations: impossible-to-determine (the thresholds were set to 0.1 and 0.5 and the mutations were grouped into 3 groups of benign, malignant, and impossible-to-determine mutations)
[1]; 9 mutants: R2659G, N3124I, L2604P, W31C, E2663K, W2626R, D3073G, G2609D, and P2329L
  MANO-B group of VUS / conflicting-interpretation BRCA2 mutations: malignant (the thresholds were set to 0.1 and 0.5 and the mutations were grouped into 3 groups of benign, malignant, and impossible-to-determine mutations)
[1]; 38 mutants: R2896C, A2643G, S142N, N854S, Y42C, G602V, T3387A, T2412A, E3096K, E2020K, S3319F, V1532F, E747G, S2697N, K2411T, P3054S, Q147R, S445Y, S755C, Y600C, K2075N, V159E, P41L, H595Y, F266L, R3385H, T2337A, I2627V, I1167V, N55S, V208G, P3292L, S1074C, T598A, T2071, R324T, A2911V, E1695V
  MANO-B group of VUS / conflicting-interpretation BRCA2 mutations: benign (the thresholds were set to 0.1 and 0.5 and the mutations were grouped into 3 groups of benign, malignant, and impossible-to-determine mutations)
[1]; BRCA2 G2724W
  MANO-B score, highest score of the malignant mutations: 0.03839
[1]; BRCA2 N2436I
  MANO-B score, lowest score of the benign mutations: 0.7386
[2]; BRCA2 C2535*, olaparib 1 nM
  relative read count (no chemical = 1): 0.94
[2]; BRCA2 C2535*, olaparib 5 nM
  relative read count (no chemical = 1): 0.78
[2]; BRCA2 C2535*, olaparib 10 nM
  relative read count (no chemical = 1): 0.77
[2]; BRCA2 C2535*, olaparib 50 nM
  relative read count (no chemical = 1): 0.4
[2]; BRCA2 C2535*, olaparib 100 nM
  relative read count (no chemical = 1): 0.27
[2]; BRCA2 C2535*, olaparib 500 nM
  relative read count (no chemical = 1): 0.08
[2]; BRCA2 C2535*, olaparib 1 μM
  relative read count (no chemical = 1): 0.05
[2]; BRCA2 C3304*, olaparib 1 nM
  relative read count (no chemical = 1): 0.98
[2]; BRCA2 C3304*, olaparib 5 nM
  relative read count (no chemical = 1): 1.14
[2]; BRCA2 C3304*, olaparib 10 nM
  relative read count (no chemical = 1): 1.17
[2]; BRCA2 C3304*, olaparib 50 nM
  relative read count (no chemical = 1): 0.94
[2]; BRCA2 C3304*, olaparib 100 nM
  relative read count (no chemical = 1): 0.69
[2]; BRCA2 C3304*, olaparib 500 nM
  relative read count (no chemical = 1): 0.3
[2]; BRCA2 C3304*, olaparib 1 μM
  relative read count (no chemical = 1): 0.29
[2]; BRCA2 D2723H
  resistance of BRCA2 D2723H mutant to the PARP inhibitor: did not exhibit resistance
[2]; BRCA2 D2723H, olaparib 1 nM
  relative read count (no chemical = 1): 0.97
[2]; BRCA2 D2723H, olaparib 5 nM
  relative read count (no chemical = 1): 0.76
[2]; BRCA2 D2723H, olaparib 10 nM
  relative read count (no chemical = 1): 0.67
[2]; BRCA2 D2723H, olaparib 50 nM
  relative read count (no chemical = 1): 0.34
[2]; BRCA2 D2723H, olaparib 100 nM
  relative read count (no chemical = 1): 0.18
[2]; BRCA2 D2723H, olaparib 500 nM
  relative read count (no chemical = 1): 0.07
[2]; BRCA2 D2723H, olaparib 1 μM
  relative read count (no chemical = 1): 0.07
[2]; BRCA2 K485*, olaparib 1 nM
  relative read count (no chemical = 1): 0.79
[2]; BRCA2 K485*, olaparib 5 nM
  relative read count (no chemical = 1): 0.66
[2]; BRCA2 K485*, olaparib 10 nM
  relative read count (no chemical = 1): 0.54
[2]; BRCA2 K485*, olaparib 50 nM
  relative read count (no chemical = 1): 0.26
[2]; BRCA2 K485*, olaparib 100 nM
  relative read count (no chemical = 1): 0.15
[2]; BRCA2 K485*, olaparib 500 nM
  relative read count (no chemical = 1): 0.06
[2]; BRCA2 K485*, olaparib 1 μM
  relative read count (no chemical = 1): 0.05
[2]; BRCA2 K1984*, olaparib 1 nM
  relative read count (no chemical = 1): 0.94
[2]; BRCA2 K1984*, olaparib 5 nM
  relative read count (no chemical = 1): 0.84
[2]; BRCA2 K1984*, olaparib 10 nM
  relative read count (no chemical = 1): 0.77
[2]; BRCA2 K1984*, olaparib 50 nM
  relative read count (no chemical = 1): 0.36
[2]; BRCA2 K1984*, olaparib 100 nM
  relative read count (no chemical = 1): 0.25
[2]; BRCA2 K1984*, olaparib 500 nM
  relative read count (no chemical = 1): 0.08
[2]; BRCA2 K1984*, olaparib 1 μM
  relative read count (no chemical = 1): 0.05
[2]; BRCA2 K2729N
  resistance of BRCA2 K2729N mutant to the PARP inhibitor compared with the wild-type: substantially the same resistance
[2]; BRCA2 K2729N, olaparib 1 nM
  relative read count (no chemical = 1): 1.08
[2]; BRCA2 K2729N, olaparib 5 nM
  relative read count (no chemical = 1): 1.58
[2]; BRCA2 K2729N, olaparib 10 nM
  relative read count (no chemical = 1): 1.36
[2]; BRCA2 K2729N, olaparib 50 nM
  relative read count (no chemical = 1): 1.74
[2]; BRCA2 K2729N, olaparib 100 nM
  relative read count (no chemical = 1): 2.31
[2]; BRCA2 K2729N, olaparib 500 nM
  relative read count (no chemical = 1): 4.76
[2]; BRCA2 K2729N, olaparib 1 μM
  relative read count (no chemical = 1): 3.72
[2]; BRCA2 L997*, olaparib 1 nM
  relative read count (no chemical = 1): 0.85
[2]; BRCA2 L997*, olaparib 5 nM
  relative read count (no chemical = 1): 0.71
[2]; BRCA2 L997*, olaparib 10 nM
  relative read count (no chemical = 1): 0.54
[2]; BRCA2 L997*, olaparib 50 nM
  relative read count (no chemical = 1): 0.24
[2]; BRCA2 L997*, olaparib 100 nM
  relative read count (no chemical = 1): 0.13
[2]; BRCA2 L997*, olaparib 500 nM
  relative read count (no chemical = 1): 0.06
[2]; BRCA2 L997*, olaparib 1 μM
  relative read count (no chemical = 1): 0.07
[2]; BRCA2 Q1502*, olaparib 1 nM
  relative read count (no chemical = 1): 1
[2]; BRCA2 Q1502*, olaparib 5 nM
  relative read count (no chemical = 1): 0.88
[2]; BRCA2 Q1502*, olaparib 10 nM
  relative read count (no chemical = 1): 0.78
[2]; BRCA2 Q1502*, olaparib 50 nM
  relative read count (no chemical = 1): 0.43
[2]; BRCA2 Q1502*, olaparib 100 nM
  relative read count (no chemical = 1): 0.24
[2]; BRCA2 Q1502*, olaparib 500 nM
  relative read count (no chemical = 1): 0.12
[2]; BRCA2 Q1502*, olaparib 1 μM
  relative read count (no chemical = 1): 0.07
[2]; BRCA2 W2970*, olaparib 1 nM
  relative read count (no chemical = 1): 0.97
[2]; BRCA2 W2970*, olaparib 5 nM
  relative read count (no chemical = 1): 0.93
[2]; BRCA2 W2970*, olaparib 10 nM
  relative read count (no chemical = 1): 0.75
[2]; BRCA2 W2970*, olaparib 50 nM
  relative read count (no chemical = 1): 0.45
[2]; BRCA2 W2970*, olaparib 100 nM
  relative read count (no chemical = 1): 0.22
[2]; BRCA2 W2970*, olaparib 500 nM
  relative read count (no chemical = 1): 0.09
[2]; BRCA2 W2970*, olaparib 1 μM
  relative read count (no chemical = 1): 0.07
[2]; BRCA2 wild type, olaparib 1 nM
  relative read count (no chemical = 1): 1.22
[2]; BRCA2 wild type, olaparib 5 nM
  relative read count (no chemical = 1): 1.52
[2]; BRCA2 wild type, olaparib 10 nM
  relative read count (no chemical = 1): 1.92
[2]; BRCA2 wild type, olaparib 50 nM
  relative read count (no chemical = 1): 3.19
[2]; BRCA2 wild type, olaparib 100 nM
  relative read count (no chemical = 1): 3.82
[2]; BRCA2 wild type, olaparib 500 nM
  relative read count (no chemical = 1): 4.2
[2]; BRCA2 wild type, olaparib 1 μM
  relative read count (no chemical = 1): 4.42
[2]; Empty vector, olaparib 1 nM
  relative read count (no chemical = 1): 0.98
[2]; Empty vector, olaparib 5 nM
  relative read count (no chemical = 1): 0.82
[2]; Empty vector, olaparib 10 nM
  relative read count (no chemical = 1): 0.69
[2]; Empty vector, olaparib 50 nM
  relative read count (no chemical = 1): 0.38
[2]; Empty vector, olaparib 100 nM
  relative read count (no chemical = 1): 0.21
[2]; Empty vector, olaparib 500 nM
  relative read count (no chemical = 1): 0.07
[2]; Empty vector, olaparib 1 μM
  relative read count (no chemical = 1): 0.05
